A short description of data set [1]: Metabolic stability in human liver S9 fraction assessed as half life at 1 uM incubated for 60 min by LC-MS/MS method. It is filed as ADME, subcellular.
Data set [2] can be described thus: Metabolic stability in human plasma assessed as half life at 1 uM incubated for 60 min by LC-MS/MS method. Type of data set: ADME, cell-free.
Data set [3] can be described thus: Metabolic stability in beagle dog plasma assessed as half life at 1 uM incubated for 60 min by LC-MS/MS method. Type of data set: ADME, cell-free, Canis lupus familiaris.
Data set [4] in a line: Metabolic stability in Sprague-Dawley rat plasma assessed as half life at 1 uM incubated for 60 min by LC-MS/MS method. Type of data set: ADME, cell-free.
Data set [5] in a line: Metabolic stability in beagle dog liver S9 fraction assessed as half life at 1 uM incubated for 60 min by LC-MS/MS method. Type of data set: ADME, subcellular, Canis lupus familiaris.
Data set [6] in a line: Metabolic stability in Sprague-Dawley rat liver S9 fraction assessed as half life at 1 uM incubated for 60 min by LC-MS/MS method. It is filed as ADME, subcellular.

Where only a bound is given, the exact number is not on record here.

As to `COC(=O)N(C)CCOC(=O)O[C@@H]1CC[C@@]2(C)[C@@H](CC[C@@H]3[C@@H]2CC[C@]2(C)[C@@H](C(C)=O)CC[C@@H]32)C1`, the half-life – broadly, the time needed for the level to fall by half in the phase considered – at 1 µM in data set [1] was found to be 0.7 min; in data set [2] it was 289 min.
As for `CC(=O)OCCCC(=O)O[C@@H]1CC[C@@]2(C)[C@@H](CC[C@@H]3[C@@H]2CC[C@]2(C)[C@@H](C(C)=O)CC[C@@H]32)C1`, the half-life at 1 µM in data set [3] was determined as 138 min; in data set [1], 0.9 min; in data set [2], 176 min; in data set [4], 1.6 min.
In the case of `CC(=O)[C@H]1CC[C@H]2[C@@H]3CC[C@H]4C[C@H](OC(=O)OCCN(C)C(=O)C(C)C)CC[C@]4(C)[C@H]3CC[C@]12C`, the half-life at 1 µM was determined as 4.3 min in data set [1] and 289 min in data set [2].
`CC(=O)[C@H]1CC[C@H]2[C@@H]3CC[C@H]4C[C@H](OC(=O)CCCOC(=O)C(C)C)CC[C@]4(C)[C@H]3CC[C@]12C`: the half-life at 1 µM in data set [5] was found to be 1.9 min; in data set [3], 233 min; in data set [1], 1.2 min; in data set [2], 140 min; in data set [4], 1.2 min; in data set [6], 1.1 min.
Consider `CC(=O)[C@H]1CC[C@H]2[C@@H]3CC[C@H]4C[C@H](OC(=O)N(C)CCOC(=O)C(C)C)CC[C@]4(C)[C@H]3CC[C@]12C`, for which the half-life at 1 µM came out at 1.8 min in data set [5]; 138 min in data set [3]; 0.9 min in data set [1]; 176 min in data set [2]; 1.6 min in data set [4].
Turning to `CCCCCCCC(=O)O[C@@H]1CC[C@@]2(C)[C@@H](CC[C@@H]3[C@@H]2CC[C@]2(C)[C@@H](C(C)=O)CC[C@@H]32)C1`, the figures for the half-life at 1 µM in data set [1] and in data set [2] were 34.3 min and over 300 min, respectively.
`CC(=O)OCCCCC(=O)O[C@@H]1CC[C@@]2(C)[C@@H](CC[C@@H]3[C@@H]2CC[C@]2(C)[C@@H](C(C)=O)CC[C@@H]32)C1`: the half-life at 1 µM in data set [5] was 1 min; in data set [3], 87 min; in data set [1] it was 0.8 min; in data set [2], 107 min.

For the origin of these results see ChEMBL document CHEMBL5247667, “Design, synthesis and characterizations of prodrugs of brexanolone” (Bioorg Med Chem Lett, 2023).
